Results published in patent US12173089B2, “Inhibition of pulmonary fibrosis with nutlin-3A and peptides” (BOARD OF REGENTS, THE UNIVERSITY OF TEXAS SYSTEM, priority 2013, dated 2024).

Key:
[1] = test system: FL-fibroblasts; assay: Proliferation of cultured FL-fibroblasts (cell count); format: cell-based, human; conditions: cells counted after 3 d
Method: FIGS. 8A-8C. Role of p53-fibrinolytic system cross-talk in nutlin-3a (NTL) or CSP-4-mediated inhibition of col-I expression in FL(IPF)-fibroblasts. (FIG. 8A) FL-fibroblasts were exposed to PBS, nutlin-3a (10 uM), CSP-4 (10 nM) or control peptide (CP) for 48 h. The cell lysates were immunoblotted for the expression of Col-I, PAI-1, p53, uPA and β-actin. (FIG. 8B) FL-fibroblasts cultured in 12 well plates in DMEM media were exposed to vehicle (PBS) or nutlin-3a, CSP-4 or CP. After 3 d, cells were detached and counted. (FIG. 8C) FL-fibroblasts were transduced with empty adenovirus vector alone (Ad-EV) or Ad-vector expressing p53 (Ad-p53), PAI-1 (Ad-PAI-1) or caveolin-1 (Ad-Cav-1). After 48 h, cell lysates were immunoblotted for Col-I, p53, PAI-1, uPA and β-actin.
FL-fibroblasts were exposed to PBS (control), nutlin-3a (10 μM), CSP-4 (10 nM) or CP for 48 hrs. Lysates were immunoblotted for the expression of Col-I, PAI-1, p53, and uPA. Cultured FL- were exposed to vehicle (PBS) or nutlin-3a, CSP-4 or CP and counted to assess proliferation. […] The process involves induction of p53 and PAI-1 expression, and concurrent inhibition of uPA.

[2] = test system: BLM-treated mice; assay: Ki-67 immunohistochemistry of lung sections of BLM-treated mice; format: in vivo; conditions: IV treatment 14 d after BLM, sections seven days later
Method: FIGS. 12A-12C. CSP-4 or nutlin-3a (NTL) inhibits proliferation of FL-fibroblasts. Mice were exposed to BLM for 14 d to induce significant lung fibrosis or to saline (fibrosis controls). 14 d later, mice exposed to BLM were treated with CSP-4 or CP, or nutlin-3a (see FIGS. 10A-10D/11A-11D). (FIG. 12A): Lung sections (d 21 after BLM injury) were subjected to immunohistochemistry (IHC) for Ki-67 to assess proliferation. One representative example is shown (n=9). Fibroblasts were isolated from the lungs of mice exposed to saline, BLM or BLM+nutlin-3a (as described in FIG. 11A) were tested for the changes in expression of col-I, p53 and downstream uPA and PAI-1 proteins by Western blotting (FIG. 12B):, and mRNA by quantitative RT-PCR (FIG. 12C).
Mice exposed to BLM 14 days earlier were treated with CSP-4 or its control (CP) or Nutlin-3a IV (as in Examples IX and X). Seven days later lung sections were obtained and subjected to IHC for Ki-67 to assess cell proliferation (see FIG. 12A). […] Fibroblasts isolated from the lungs of these animals (as described in Example X) were tested for the changes in expression of col-I, p53 and downstream uPA and PAI-1 proteins by Western blotting, and mRNA by quantitative RT-PCR (see FIGS. 12B-12C).

[3] = test system: FL(IPF)-tissues; assay: Ex vivo treatment of FL-lung tissues from IPF patients; format: cell-based, human; conditions: for PAI-1 levels in fibroblasts isolated from IPF explants / Phosphorylation of Akt in fibroblasts from IPF explants / expression of PDGFR-β mRNA and protein in fibroblasts from IPF explants / miR-34a levels in fibroblasts isolated from IPF explants / p53 levels in fibroblasts isolated from IPF explants / uPA expression in fibroblasts isolated from IPF explants / uPAR expression in fibroblasts isolated from IPF explants / ECM synthetic rates of FL-lung explants: nutlin-3a 10 μM or CSP-4 10 nM, 3 to 7 days; for ECM synthetic rates of FL-lung explants: vs untreated, vehicle or CP; for production of ECM of fibroblasts from IPF explants / rate of proliferation of fibroblasts from IPF explants: vs FL-fibroblasts from untreated, vehicle- or CP-treated controls
Method: Freshly dissected FL-lung tissues from IPF patients are treated with nutlin-3a (10 μM) or CSP-4 (10 nM) for 3 to 7 days (see FIG. 13). Lung tissues are homogenized and tested for changes in ECM (hydroxyproline and desmosine). Controls include fibrotic lung (FL)-tissues from IPF patients treated with vehicle or control peptide, CP or naive lung tissues maintained in culture medium. Other controls include NL-tissues resected from histologically “normal” lungs. De-identified patient (“normal” and IPF) lungs that were not suitable for transplantation and donated for medical research are obtained through HAM (Edison, NJ) and the NDRI (Philadelphia, PA) and used for ex vivo studies. Fibroblasts are isolated from these tissues and analyzed for changes in p53, uPA, uPAR and PAI-1 expression, production of ECM and viability. Changes in rate of ECM synthesis are also measured. FL-tissue explants from patients with IPF have elevated synthesis of ECM when compared to expression levels in the slices of NL-tissues from control subjects. […] Phosphorylation of Akt and expression of PDGFR-β mRNA and protein also are reduced in fibroblasts from IPF explants treated with nutlin-3a or CSP-4.

Row | Compound | proliferation of FL-fibroblasts [1] | staining for ki-67 antigens in lung sections [2] | PAI-1 levels in fibroblasts isolated from IPF explants [3] | Phosphorylation of Akt in fibroblasts from IPF explants [3] | expression of PDGFR-β mRNA and protein in fibroblasts from IPF explants [3] | miR-34a levels in fibroblasts isolated from IPF explants [3] | p53 levels in fibroblasts isolated from IPF explants [3] | uPA expression in fibroblasts isolated from IPF explants [3] | uPAR expression in fibroblasts isolated from IPF explants [3] | ECM synthetic rates of FL-lung explants [3] | production of ECM of fibroblasts from IPF explants [3] | rate of proliferation of fibroblasts from IPF explants [3]
1 | COc1ccc(C2=NC(c3ccc(Cl)cc3)C(c3ccc(Cl)cc3)N2C(=O)N2CCNC(=O)C2)c(OC(C)C)c1 (stereo not drawn) [nutlin-3a, 4-2-4,5-dihydro-1H-imidazole-1-piperazin-2-one] | inhibited | significantly reduced | elevated levels | reduced | reduced | elevated levels | elevated levels | reduced | reduced | significantly reduced | significantly lower | significantly lower
2 | FTTFTVT [CSP-4] | inhibited | significantly reduced | elevated levels | reduced | reduced | elevated levels | elevated levels | reduced | reduced | significantly reduced | significantly lower | significantly lower
